Source: patent publication US6737383B1, “Herbicidal oxadiazolidines” (priority 1999, dated 2004)

Experiments:
soybean = experiment: Test B pre/postemergence soybean; assay type: in vivo, Glycine max
Procedure, shortened: (§1)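 Response is a visual 0-to-10 score relative to untreated plants, where 0 means no effect and 10 means complete control, taken twelve to sixteen days after application. Treatments went onto soil at planting and onto foliage of 1- to 4-leaf plants, using a surfactant-containing non-phytotoxic solvent.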

smallflower flatsedge = experiment: Test B flood test smallflower flatsedge; assay type: in vivo, Cyperus difformis
Procedure, shortened: (§2)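 Plants were grown to the 2-leaf stage before treatment with test chemical, then held in a greenhouse for twelve to sixteen days. Injury was visually rated against untreated controls on a 0–10 scale, where 0 is no effect and 10 is complete control.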

wheat = experiment: Test B pre/postemergence wheat; assay type: in vivo, Triticum aestivum
Procedure, shortened: as §1

surinam grass = experiment: Test B pre/postemergence surinam grass; assay type: in vivo, Brachiaria decumbens
Procedure, shortened: as §1

bedstraw = experiment: Test B pre/postemergence bedstraw; assay type: in vivo, Galium aparine; settings: Postemergence; for Plant response rating, Bedstraw: scale 0 to 10, 0 is no effect, 10 is complete control; for Bedstraw plant response rating: scale of 0 to 10 where 0 is no effect and 10 is complete control
Procedure, shortened: as §1

duck salad = experiment: Test B flood test duck salad; assay type: in vivo, Heteranthera limosa; settings: for Plant response rating, Ducksalad: scale 0 to 10, 0 is no effect, 10 is complete control; for Ducksalad plant response rating: scale of 0 to 10 where 0 is no effect and 10 is complete control
Procedure, shortened: as §2

blackgrass = experiment: Test B pre/postemergence blackgrass; assay type: in vivo, Alopecurus myosuroides
Procedure, shortened: as §1

corn = experiment: Test B pre/postemergence corn; assay type: in vivo, Zea mays
Procedure, shortened: as §1

cocklebur = experiment: Test B pre/postemergence cocklebur; assay type: in vivo, Xanthium strumarium
Procedure, shortened: as §1

bamyardgrass = experiment: Test B flood test barnyardgrass; assay type: in vivo, Echinochloa crus-galli; settings: for Plant response rating, Barnyardgrass: scale 0 to 10, 0 is no effect, 10 is complete control; for Barnyardgrass plant response rating: scale of 0 to 10 where 0 is no effect and 10 is complete control
Procedure, shortened: as §2

crabgrass = experiment: Test B pre/postemergence crabgrass; assay type: in vivo, Digitaria sanguinalis
Procedure, shortened: as §1

sugar beet = experiment: Test B pre/postemergence sugar beet; assay type: in vivo, Beta vulgaris
Procedure, shortened: as §1

purple nutsedge = experiment: Test B pre/postemergence purple nutsedge; assay type: in vivo, Cyperus rotundus
Procedure, shortened: as §1

wild oat = experiment: Test B pre/postemergence wild oat; assay type: in vivo, Avena fatua
Procedure, shortened: as §1

rice = experiment: Test B flood test rice; assay type: in vivo, Oryza sativa
Procedure, shortened: as §2

velvetleaf = experiment: Test B pre/postemergence velvetleaf; assay type: in vivo, Abutilon theophrasti
Procedure, shortened: as §1

[1] = Postemergence, Rate 250 g/ha, scale 0 to 10, 0 is no effect, 10 is complete control
[2] = Postemergence, Rate 500 g/ha, scale of 0 to 10 where 0 is no effect and 10 is complete control
[3] = Preemergence, Rate 62 g/ha, scale 0 to 10 (0 no effect, 10 complete control)
[4] = Preemergence, Rate 125 g/ha, scale of 0 to 10 where 0 is no effect and 10 is complete control
[5] = Preemergence, Rate 250 g/ha, scale 0 to 10, 0 is no effect, 10 is complete control
[6] = Preemergence, Rate 500 g/ha, scale 0 to 10, 0 is no effect, 10 is complete control
[7] = Postemergence section (flood test species), Rate 500 g/ha, scale of 0 to 10 where 0 is no effect and 10 is complete control
[8] = flood test species, listed under Postemergence, Rate 250 g/ha, scale 0 to 10, 0 is no effect, 10 is complete control
[9] = Postemergence, Rate 125 g/ha, scale 0 to 10, 0 is no effect, 10 is complete control
[10] = Preemergence, Rate 250 g/ha, scale of 0 to 10 where 0 is no effect and 10 is complete control
[11] = Rate 62 g/ha, Postemergence, scale of 0 to 10 where 0 is no effect and 10 is complete control
[12] = Postemergence (flood test), Rate 125 g/ha
[13] = Postemergence section (flood test species), Rate 500 g/ha
[14] = Rate 62 g/ha, Postemergence (flood test species)
[15] = flood test species, listed under Postemergence, Rate 250 g/ha

CC(C)N(C(=O)n1oc(=O)n(CC2(C)COC2)c1=O)c1ccccc1 [Compound 420]
Plant response rating, Soybean (soybean; [1]): 3 | Soybean plant response rating (soybean; [2]): 4 | Plant response rating, Soybean (soybean; [3]): 0 | Plant response rating, Soybean (soybean; [4]): 0 | Soybean plant response rating (soybean; [5]): 0 | Soybean plant response rating (soybean; [6]): 0 | S. Flatsedge plant response rating (smallflower flatsedge; [7]): 0 | Plant response rating, S. Flatsedge (smallflower flatsedge; [8]): 0 | Wheat plant response rating (wheat; [2]): 5 | Plant response rating, Wheat (wheat; [3]): 0 | Plant response rating, Wheat (wheat; [4]): 0 | Wheat plant response rating (wheat; [5]): 2 | Wheat plant response rating (wheat; [6]): 7 | Plant response rating, B. signalgrass (surinam grass; [9]): 2 | Plant response rating, B. signalgrass (surinam grass; [1]): 5 | B. signalgrass plant response rating (surinam grass; [2]): 7 | Plant response rating, B. signalgrass (surinam grass; [3]): 2 | Plant response rating, B. signalgrass (surinam grass; [4]): 2 | B. signalgrass plant response rating (surinam grass; [10]): 6 | B. signalgrass plant response rating (surinam grass; Preemergence, Rate 500 g/ha, scale of 0 to 10 where 0 is no effect and 10 is complete control): 8 | B. signalgrass plant response rating (surinam grass; [11]): 0 | Plant response rating, Bedstraw (bedstraw; Rate 125 g/ha): 0 | Plant response rating, Bedstraw (bedstraw; Rate 250 g/ha): 3 | Bedstraw plant response rating (bedstraw; Rate 500 g/ha): 5 | Bedstraw plant response rating (bedstraw; Rate 62 g/ha): 0 | Plant response rating, Ducksalad (duck salad; [12]): 0 | Ducksalad plant response rating (duck salad; [13]): 0 | Ducksalad plant response rating (duck salad; [14]): 0 | Plant response rating, Ducksalad (duck salad; [15]): 0 | Plant response rating, Blackgrass (blackgrass; [9]): 2 | Plant response rating, Blackgrass (blackgrass; [1]): 6 | Blackgrass plant response rating (blackgrass; [2]): 6 | Plant response rating, Blackgrass (blackgrass; [3]): 4 | Plant response rating, Blackgrass (blackgrass; [4]): 8 | Blackgrass plant response rating (blackgrass; [10]): 8 | Blackgrass plant response rating (blackgrass; [6]): 10 | Blackgrass plant response rating (blackgrass; [11]): 0 | Plant response rating, Corn (corn; [9]): 0 | Plant response rating, Corn (corn; [1]): 0 | Corn plant response rating (corn; [2]): 0 | Plant response rating, Corn (corn; [3]): 0 | Plant response rating, Corn (corn; [4]): 0 | Corn plant response rating (corn; [5]): 0 | Corn plant response rating (corn; [6]): 2 | Corn plant response rating (corn; [11]): 0 | Plant response rating, Cocklebur (cocklebur; [9]): 0 | Plant response rating, Cocklebur (cocklebur; [1]): 0 | Cocklebur plant response rating (cocklebur; [2]): 0 | Plant response rating, Cocklebur (cocklebur; [3]): 0 | Plant response rating, Cocklebur (cocklebur; [4]): 0 | Cocklebur plant response rating (cocklebur; [5]): 0 | Cocklebur plant response rating (cocklebur; [6]): 0 | Cocklebur plant response rating (cocklebur; [11]): 0 | Plant response rating, Barnyardgrass (bamyardgrass; [12]): 0 | Barnyardgrass plant response rating (bamyardgrass; [13]): 0 | Barnyardgrass plant response rating (bamyardgrass; [14]): 0 | Plant response rating, Barnyardgrass (bamyardgrass; [15]): 0 | Plant response rating, Crabgrass (crabgrass; [9]): 2 | Plant response rating, Crabgrass (crabgrass; [1]): 8 | Crabgrass plant response rating (crabgrass; [2]): 8 | Plant response rating, Crabgrass (crabgrass; [3]): 7 | Plant response rating, Crabgrass (crabgrass; [4]): 9 | Crabgrass plant response rating (crabgrass; [5]): 9 | Crabgrass plant response rating (crabgrass; [6]): 10 | Crabgrass plant response rating (crabgrass; [11]): 2 | Plant response rating, Sugarbeets (sugar beet; [1]): 0 | Sugarbeets plant response rating (sugar beet; [2]): 0 | Plant response rating, Sugarbeets (sugar beet; [3]): 0 | Plant response rating, Sugarbeets (sugar beet; [4]): 0 | Sugarbeets plant response rating (sugar beet; [5]): 2 | Sugarbeets plant response rating (sugar beet; [6]): 3 | Plant response rating, Nutsedge (purple nutsedge; [1]): 0 | Nutsedge plant response rating (purple nutsedge; [2]): 0 | Plant response rating, Nutsedge (purple nutsedge; [3]): 0 | Plant response rating, Nutsedge (purple nutsedge; [4]): 0 | Nutsedge plant response rating (purple nutsedge; [5]): 0 | Nutsedge plant response rating (purple nutsedge; [6]): 10 | Wild oats plant response rating (wild oat; [2]): 2 | Plant response rating, Wild oats (wild oat; [3]): 0 | Plant response rating, Wild oats (wild oat; [4]): 2 | Wild oats plant response rating (wild oat; [5]): 2 | Wild oats plant response rating (wild oat; [6]): 5 | Rice plant response rating (rice; [7]): 0 | Plant response rating, Rice (rice; [8]): 0 | Plant response rating, Velvetleaf (velvetleaf; [1]): 0 | Velvetleaf plant response rating (velvetleaf; [2]): 0 | Plant response rating, Velvetleaf (velvetleaf; [3]): 0 | Plant response rating, Velvetleaf (velvetleaf; [4]): 2 | Velvetleaf plant response rating (velvetleaf; [5]): 6 | Velvetleaf plant response rating (velvetleaf; [6]): 7
